From patent US20030082194A1, “Compositions and methods for diagnosis and therapy of malignant mesothelioma” (priority 2000, published 2003)
Blank lines part the entries; values can stand above or below the molecule they belong to.

Columns and labels:
[1] = system: mouse B6 class I antigens (D^b or K^b molecules on RMA-S cells); test: Peptide binding to C57Bl/6 murine MHC on RMA-S cells, flow cytometry (Tables 48, 49); format: cell-based
Procedure: In brief, RMA-S cells were cultured for 7 hrs at 26° C. in complete medium supplemented with 1% FCS. A total of […] RMA-S cells were added into each well of a 24-well plate and incubated either alone or with the designated peptide (25 μg/ml) for 16 hrs at 26° C. and additional 3 hrs at 37° C. in complete medium. Cells were then washed three times and stained with fluorescein isothiocyanate-conjugated anti Db or anti-Kb antibody (PharMingen, San Diego, CA). Labeled cells were washed twice, resuspended and fixed in 500 μl of PBS with 1% paraformaldehyde and analyzed for fluorescence intensity in a flow cytometer (Becton-Dickinson FACSCalibur®). The percentage of increase of D^b or K^b molecules on the surface of the RMA-S cells was measured by increased mean fluorescent intensity of cells incubated with peptide compared with that of cells incubated in medium alone.

[2] = Systemic histopathological and toxicological effects of WT1 protein immunization in mice; format: in vivo, mouse
Source text: (§1) The purpose of this example is to analyze the immunogenicity and potential systemic histopathological and toxicological effects of WT1 protein immunization in a multiple dose titration in mice.
(§2) The experimental design for immunization of mice with WT1 protein is outlined in Table 51.
Special emphasis was put on evaluation of potential hematopoietic toxicity. The myeloid/erythroid ratio in sternum and femur marrow was normal.

WT1 = test: Immunogenicity of WT1 protein immunization with MPL-SE, multiple dose titration in mice (Table 51); format: in vivo, mouse; conditions: MPL-SE adjuvant; doses 25 μg, 100 μg to 1000μg WT1 protein; female C57/B6 mice
Source text: as §1, §2

[3] = system: targets incubated with WT1 peptides (EL-4); test: CTL chromium release assay, peptide-incubated targets; format: cell-based, mouse; conditions: for generation of peptide specific CTL following immunization: mice immunized with peptide, spleen cells stimulated in vitro, chromium release; for lysis of targets incubated with the relevant peptide by peptide specific CTL: chromium release assay
Procedure: (§3) Following immunization, spleen cells were stimulated in vitro and tested for the ability to lyse targets incubated with WT1 peptides. CTL were evaluated with a standard chromium release assay (Chen et al., 1994). […] target cells were incubated at 37° C. with 150 μCi of sodium ^51Cr for 90 min., in the presence or absence of specific peptides. Cells were washed three times and resuspended in RPMI with 5% fetal bovine serum. For the assay, 10^4 51Cr-labeled target cells were incubated with different concentrations of effector cells in a final volume of 200 μl in U-bottomed 96-well plates. Supernatants were removed after 4-7 hrs at 37° C., and the percentage specific lysis was determined by the formula:
(§4) % Specific lysis=100×(experimental release−spontaneous release)/(maximum release-spontaneous release).
(§5) P117-139, a peptide with motifs appropriate for binding to class I and class II MHC, was identified as described above using TSITES and BIMAS HLA peptide binding prediction analyses. Mice were immunized as described in Example 3. Following immunization, spleen cells were stimulated in vitro and tested for the ability to lyse targets incubated with WT1 peptides, as well as WT1 positive and negative tumor cells. CTL were evaluated with a standard chromium release assay.
Following immunization, spleen cells were stimulated in vitro with each of the 4 peptides and tested for ability to lyse targets incubated with WT1 peptides.

[4] = system: WT1 positive tumor cell lines (TRAMP-C, BLK-SV40); test: CTL chromium release assay, WT1 positive tumor cell lines; format: cell-based, mouse
Procedure: as §3, §4
as §5, with “assay. […]” for “assay.”

[5] = system: T cells / spleen cells of immunized B6 mice; test: Proliferative T cell response, thymidine incorporation assay after immunization of B6 mice with WT1 peptides; format: cell-based, mouse; conditions: for stimulation index (SI), proliferative T cell response: B6 mice immunized with WT1 peptides, thymidine incorporation, FIG. 3
[6] = even on an outpatient basis; cited from earlier work
[7] = molecular target: Mouse B6 (C57Bl/6) MHC class I antigens on RMA-S cells (D^b or K^b) (mouse (C57Bl/6)); test: binding of 9-mer peptide to mouse B6 (H-2b) class I; RMA-S stabilisation assay as in Example 4
[8] = molecular target: Mouse B6 (C57Bl/6) MHC class I antigens on RMA-S cells (D^b or K^b) (mouse (C57Bl/6)); test: RMA-S MHC stabilisation, peptide 25 ug/ml, FITC anti-Db or anti-Kb, flow cytometry (MFI increase over medium alone)
[9] = 9-mer peptides within p117-139, mouse B6 class I antigens, Table 49
[10] = mice immunized with WT1 protein
[11] = peptide 25 μg/ml, percentage of increase of Db or Kb molecules (mean fluorescent intensity) vs medium alone, Table 48

Molecule: P129-137 (PNAPYLPSC) [Peptide P129-137]
- Binding Affinity to Mouse MHC Class I [1, 9]: 1%

Molecule: WT1 protein: WT1 protein used for vaccination of mice with MPL-SE as adjuvant
- histological evidence for toxicity in tissues ([2]; adrenal gland, brain, colon, heart, kidney, liver, lung, marrow, spleen and other listed tissues): No histological evidence for toxicity
- blood cell counts and blood chemistry (BUN, creatinine, bilirubin, albumin, globulin) [2, 10]: within the normal range
- myeloid/erythroid ratio in sternum and femur marrow [2, 10]: normal
- systemic histopathological or toxicological effects of immunization ([2]; mice, multiple dose titration): No systemic histopathological or toxicological effects
- WT1-specific antibody response (WT1): elicited a strong WT1-specific antibody response
- cellular T-cell responses (WT1): cellular T-cell responses

Molecule: NLYQMTSQL (listed as Homo sapiens) [SEQ ID NO:147]
- Binding Affinity to Mouse MHC Class I [1, 11]: 5.8%

Molecule: SCLESQPAI (listed as Homo sapiens) [SEQ ID NO:198]
- generation of peptide specific CTL following immunization [3]: peptide specific CTL lines were generated
- Binding Affinity to Mouse MHC Class I [1, 11]: 52%

Molecule: NAPYLPSCL (listed as Homo sapiens) [SEQ ID NO:144]
- lysis of WT1 positive tumor cells by peptide specific CTL [4]: showed lysis of a WT1 positive tumor cell line
- lysis of targets incubated with 9-mer peptide by CTL generated by immunization with p117-139 ([3]; FIG. 10A): lysed
- lysis of targets incubated with the relevant peptide by peptide specific CTL [3]: demonstrated peptide specific lysis
- Binding Affinity to Mouse MHC Class I [1, 9]: 79%
- binding to H-2b class I molecules / class I MHC molecules ([1]; peptide 25 μg/ml): shown to bind to H-2b class I molecules

Molecule: P125-133 (ARMFPNAPY) [Peptide P125-133]
- Binding Affinity to Mouse MHC Class I [1, 9]: 1%

Molecule: CMTWNQMNL (listed as Homo sapiens, listed as Mus musculus) [SEQ ID NO:49]
- lysis of WT1 positive tumor cells by peptide specific CTL [4]: failed to lyse cell lines that expressed WT1 proteins
- lysis of targets incubated with the relevant peptide by peptide specific CTL [3]: lysed targets incubated with the p235-243 peptides
- generation of peptide specific CTL following immunization ([3]; listed as p235-243): peptide specific CTL lines were generated
- Binding Affinity to Mouse MHC Class I [1, 11]: 33.6%

Molecule: P124-132 (QARMFPNAP) [Peptide P124-132]
- Binding Affinity to Mouse MHC Class I [1, 9]: 1%

Molecule: p329-337 (GCNKRYFKL)
- Binding Affinity to Mouse MHC Class I [1, 11]: 1.2%

Molecule: GATLKGVAAGSSSSVKWTE (listed as Homo sapiens) [p244-262]
- stimulation indices (SI), proliferative T cell responses to the immunizing peptides ([5]; Vaccine A, bulk lines, peptide 25 μg/ml, 96 hr, FIG. 4A): No proliferative response

Molecule: P118-126 (SQASSGQAR) [Peptide P118-126]
- Binding Affinity to Mouse MHC Class I [1, 9]: 2%

Molecule: ALLPAVPSL (listed as Homo sapiens) [SEQ ID NO:34]
- generation of peptide specific CTL following immunization [3]: peptide specific CTL lines were generated
- Binding Affinity to Mouse MHC Class I [1, 11]: 2.2%

Molecule: p221-229 (YSSDNLYQM)
- Binding Affinity to Mouse MHC Class I [1, 11]: 0.8%

Molecule: P128-136 (FPNAPYLPS) [Peptide P128-136]
- Binding Affinity to Mouse MHC Class I [1, 9]: 1%

Molecule: P121-129 (SSGQARMFP) [Peptide P121-129]
- Binding Affinity to Mouse MHC Class I [1, 9]: 1%

Molecule: p228-236 (QMTSQLECM)
- Binding Affinity to Mouse MHC Class I [1, 11]: 1.2%

Molecule: P127-135 (MFPNAPYLP) [Peptide P127-135]
- Binding Affinity to Mouse MHC Class I [1, 9]: 2%

Molecule: RDLNALLPAVPSLGGGG (listed as Homo sapiens) [p6-22]
- stimulation index (SI), proliferative T cell response [5]: 2.3
- proliferation of Vaccine A specific T cell line after single peptide in vitro stimulation ([5]; FIG. 5A, 5C): proliferation to p6-22 with no response to p117-139

Molecule: P131-139 (APYLPSCLE) [Peptide P131-139]
- Binding Affinity to Mouse MHC Class I [1, 9]: 1%

Molecule: P120-128 (ASSGQARMF) [Peptide P120-128]
- Binding Affinity to Mouse MHC Class I [1, 9]: 1%

Molecule: P117-125 (PSQASSGQA) [Peptide P117-125]
- Binding Affinity to Mouse MHC Class I [1, 9]: 2%

Molecule: P119-127 (QASSGQARM) [Peptide P119-127]
- Binding Affinity to Mouse MHC Class I [1, 9]: 2%

Molecule: VRRVSGVAPTLVRS (listed as Mus musculus) [P299-313]
- stimulation index (SI), proliferative T cell response [5]: 3.3

Molecule: monophosphoryl lipid A [MPL]
- dose known to be safe for human use [6]: 100 μg/m^2

- Binding Affinity to Mouse MHC Class I (%) [7]: 2%
Molecule: SQASSGQAR [WT1 peptide P118-126 (…)]

- Binding Affinity to Mouse MHC Class I (%) [7]: 2%
Molecule: PSQASSGQA [WT1 peptide P117-125 (…)]

- Binding Affinity to Mouse MHC Class I (%) [7]: 1%
Molecule: PNAPYLPSC [WT1 peptide P129-137 (…)]

- Binding Affinity to Mouse MHC Class I (% increase of Db or Kb on RMA-S cells) [8]: 52%
Molecule: SCLESQPAI [WT1 peptide human p136-144 (…)]

- Binding Affinity to Mouse MHC Class I (%) [7]: 1%
Molecule: QARMFPNAP [WT1 peptide P124-132 (…)]

- Binding Affinity to Mouse MHC Class I (% increase of Db or Kb on RMA-S cells) [8]: 1.2%
Molecule: QMTSQLECM [WT1 peptide p228-236 (…)]

- Binding Affinity to Mouse MHC Class I (%) [7]: 1%
Molecule: ARMFPNAPY [WT1 peptide P125-133 (…)]

- Binding Affinity to Mouse MHC Class I (%) [7]: 1%
Molecule: FPNAPYLPS [WT1 peptide P128-136 (…)]

- Binding Affinity to Mouse MHC Class I (% increase of Db or Kb on RMA-S cells) [8]: 0.8%
Molecule: YSSDNLYQM [WT1 peptide p221-229 (…)]

- Binding Affinity to Mouse MHC Class I (%) [7]: 2%
Molecule: QASSGQARM [WT1 peptide P119-127 (…)]

- Binding Affinity to Mouse MHC Class I (%) [7]: 1%
Molecule: ASSGQARMF [WT1 peptide P120-128 (…)]

- Binding Affinity to Mouse MHC Class I (% increase of Db or Kb on RMA-S cells) [8]: 5.8%
Molecule: NLYQMTSQL [WT1 peptide p225-233 (…)]

- Binding Affinity to Mouse MHC Class I (% increase of Db or Kb on RMA-S cells) [8]: 33.6%
Molecule: CMTWNQMNL [WT1 peptide p235-243 (…)]

- Binding Affinity to Mouse MHC Class I (% increase of Db or Kb on RMA-S cells) [8]: 2.2%
Molecule: ALLPAVPSL [WT1 peptide human p10-18 (…)]

- Binding Affinity to Mouse MHC Class I (%) [7]: 2%
Molecule: MFPNAPYLP [WT1 peptide P127-135 (…)]

- Binding Affinity to Mouse MHC Class I (%) [7]: 1%
Molecule: APYLPSCLE [WT1 peptide P131-139 (…)]

- Binding Affinity to Mouse MHC Class I (%) [7]: 1%
Molecule: SSGQARMFP [WT1 peptide P121-129 (…)]

- Binding Affinity to Mouse MHC Class I (% increase of Db or Kb on RMA-S cells) [8]: 1.2%
Molecule: GCNKRYFKL [WT1 peptide p329-337 (…)]

- Binding Affinity to Mouse MHC Class I (%) [7]: 79%
Molecule: NAPYLPSCL [WT1 peptide P130-138 (…)]
